# In the supplement of paper PMC10307832:
# Tests used:
# Experiment in all cases: relative viability (nuclei count vs DMSO), 5 days (fraction); higher = more cells survive
# [1] = compound: CCN(CCO)CCCC(C)Nc1ccnc2cc(Cl)ccc12 [Hydroxychloroquine] + COc1cc2c(Oc3ccc(NC(=O)C4(C(=O)Nc5ccc(F)cc5)CC4)cc3F)ccnc2cc1OCCCN1CCOCC1 [Foretinib] (partner 0.25 µM)
# Procedure, shortened: (§1)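 Dosing by pin tool came one day after lung cancer cell lines were seeded in 1536-well plates, using either one drug or a fixed anchor-drug dose plus five library-drug doses (not always all listed) in √10 steps. After 5 days, nuclei were counted on 4× images. Relative viability is treated-well nuclei count divided by vehicle-well nuclei count, and values are medians of duplicate plates.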
# [2] = compound: CCN(CCO)CCCC(C)Nc1ccnc2cc(Cl)ccc12 [Hydroxychloroquine] + O=C(CCCCCCC(=O)Nc1ccccc1)NO [Vorinostat] (partner 1 µM)
# Procedure, shortened: as §1
# [3] = compound: CCN(CCO)CCCC(C)Nc1ccnc2cc(Cl)ccc12 [Hydroxychloroquine] + NC(=O)Nc1cc(-c2cccc(F)c2)sc1C(=O)N[C@H]1CCCNC1 [AZD7762] (partner 0.2 µM)
# Procedure, shortened: as §1
# [4] = compound: CCN(CCO)CCCC(C)Nc1ccnc2cc(Cl)ccc12 [Hydroxychloroquine] + CS(=O)(=O)N1CCN(Cc2cc3nc(-c4cccc5[nH]ncc45)nc(N4CCOCC4)c3s2)CC1 [Pictilisib] (partner 1 µM)
# Procedure, shortened: as §1
Cell Line,relative viability ([1]; first compound 0.5 µM),relative viability ([1]; first compound 1.581 µM),relative viability ([1]; first compound 5 µM),relative viability ([1]; first compound 15.81 µM),relative viability ([1]; first compound 50 µM),relative viability ([2]; first compound 0.5 µM),relative viability ([2]; first compound 1.581 µM),relative viability ([2]; first compound 5 µM),relative viability ([2]; first compound 15.81 µM),relative viability ([2]; first compound 50 µM),relative viability ([3]; first compound 0.5 µM),relative viability ([3]; first compound 1.581 µM),relative viability ([3]; first compound 5 µM),relative viability ([3]; first compound 15.81 µM),relative viability ([3]; first compound 50 µM),relative viability ([4]; first compound 0.5 µM),relative viability ([4]; first compound 1.581 µM),relative viability ([4]; first compound 5 µM),relative viability ([4]; first compound 15.81 µM),relative viability ([4]; first compound 50 µM)
NCI-H460,1.01,0.995,1.08,1.04,1.25,0.733,0.865,0.812,0.815,0.83,0.727,0.645,0.63,0.749,0.615,0.37,0.266,0.366,0.406,0.352
NCI-H1793,0.821,0.618,0.624,0.661,0.534,0.791,0.606,0.548,0.638,0.804,0.46,0.615,0.452,0.402,0.404,0.349,0.308,0.415,0.307,0.364
NCI-H23,1.04,0.968,0.979,0.99,0.903,0.674,0.566,0.56,0.626,0.67,0.263,0.355,0.21,0.271,0.248,0.552,0.409,0.384,0.385,0.449
HARA,0.957,0.918,0.891,0.921,1.07,0.516,0.482,0.55,0.603,0.594,0.263,0.373,0.405,0.219,0.376,0.316,0.383,0.508,0.407,0.362
NCI-H1792,–,–,–,–,–,–,–,–,–,–,0.762,0.692,0.57,0.601,0.836,0.286,0.256,0.254,0.26,0.249
NCI-H1703,0.402,0.443,0.313,0.347,0.379,–,–,–,–,–,0.196,0.159,0.135,0.114,0.137,0.272,0.241,0.224,0.263,0.216
NCI-H2342,0.917,0.995,1.05,1.01,1.1,0.713,0.812,0.812,0.813,0.848,0.458,0.47,0.522,0.463,0.449,–,–,–,–,–
CAL-12T,0.974,1.04,1.04,1.33,1.06,0.865,0.725,0.684,0.873,0.979,0.571,0.804,0.596,0.599,0.659,0.793,–,0.382,0.35,0.598
NCI-H838,1.07,0.978,1.08,0.98,1.13,0.721,0.667,0.803,0.716,0.721,0.963,0.943,0.916,0.968,1.03,0.509,0.465,0.398,0.465,0.53
NCI-H2085,1.09,1.02,0.932,0.931,0.98,0.853,0.63,0.822,0.847,0.873,1.03,0.933,0.922,0.927,1.06,0.434,0.509,0.462,0.392,0.472
NCI-H1395,1.06,0.989,0.872,0.963,1.02,0.756,0.716,0.606,0.743,0.674,0.393,0.465,0.419,0.375,0.426,0.605,0.836,0.627,0.564,0.569
NCI-H1648,–,–,–,–,–,0.458,0.44,0.422,0.68,0.503,0.657,0.758,0.575,0.531,0.562,–,–,–,–,–
NCI-H520,0.833,0.781,0.801,0.839,0.748,0.915,0.642,0.743,0.77,0.715,–,–,–,–,–,0.338,0.255,0.29,0.354,0.387
A549,0.953,0.905,0.951,0.952,1.11,–,–,–,–,–,–,–,–,–,–,0.622,0.525,0.434,0.529,0.565
IA-LM,1.15,1.31,1.12,1.26,1.27,1.02,1.13,1.03,–,1.06,–,–,–,–,–,0.296,0.357,0.361,0.433,0.338
EKVX,0.824,0.795,0.753,0.767,0.75,0.688,0.609,0.677,0.767,0.648,0.549,0.772,0.753,0.653,0.759,0.458,0.383,0.476,0.427,0.476
ChaGo-K-1,0.939,1.04,0.929,0.911,1.04,0.806,0.785,0.778,0.759,0.711,0.775,0.88,0.821,0.901,0.998,0.873,0.506,0.383,0.662,0.64
NCI-H1755,0.906,0.797,0.854,0.922,0.842,0.79,0.656,0.778,0.734,0.737,0.616,0.447,0.396,0.445,0.514,0.431,0.273,0.374,0.425,0.379
NCI-H2228,0.809,0.862,0.839,0.969,0.834,0.5,0.594,0.457,0.515,0.839,–,–,–,–,–,0.403,0.375,0.339,0.412,0.398
